The target in data set [1] is T1, MLC kinase (myosin light-chain kinase) (Gallus gallus, UniProt P11799).
T1 construct: MLC kinase was purified from chicken stomach; from tissue; host or cells: chicken stomach (gizzard smooth muscle)
Description: inhibition of MLC kinase, in vitro enzyme test (32P phosphate incorporation). It is filed as biochemical, chicken (stomach). To be noted: for ratio of IC50 C-kinase/IC50 MLC-kinase: selectivity factor calculated from the IC50 values; for IC50: 1 nM MLC kinase, 250 μM ATP, pH 7.2, 20 minutes at 30° C., read-out: inhibition of the protein kinases, MLC-kinase IC50; for MLC kinase inhibition, in words: potency and selectivity vs protein kinase C.
Description: Inhibition of the enzyme MLC kinase (EC 3.6.1.3; kinase of the light myosin chain; myosin light-chain kinase).
The inhibition of MLC kinase was measured in an in vitro enzyme test.
The reaction was initiated by the addition of 1 nM MLC kinase. After incubation for 20 minutes at 30° C., the reaction was stopped with TCA and the samples then filtered off. The phosphate incorporation took place by means of Cerenkov counting of the filter.

Another data set deals with human tumour cells. The data set is described as follows: colony test, human tumour cells in soft agar (tumour types in general). It is filed as cell-based. To be noted: certain tumour types. The protocol: For this test, human tumour cells are kept as solid tumour by passage on the nude mouse. For the test, an individual cell suspension is prepared and the cells then plated out in dishes containing soft agar. Under these conditions, the tumour cells multiply and form colonies.

In a further data set the target is protein kinase C. Description: inhibition of protein kinase C, enzyme test. It is filed as biochemical. To be noted: for IC50: read-out: inhibition of the protein kinases, C-kinase IC50. The protocol:
In order to ascertain whether it is a question of a selective inhibition of MLC kinase, the compounds were also investigated in other enzyme tests for protein kinase, including tests for protein kinase C. The results from the PKC test are also given in the following Table I. Furthermore, the Table contains selectivity factors which were calculated by the determination of the ratios of the IC50 values.

Data set [2] relates to HIV. Description: phorbol ester-induced HIV reactivation, HIV-induced syncytia formation with indicator cell. It is filed as cell-based. Particulars: Human immunodeficiency virus 1; U1 cells, PMA stimulation; average value; n = 2; read-out: inhibition of the HIV production IC50, syncytia formation. On the procedure: (§1) In the case of the establishment of this hypothesis, use was made of the promonocytic cell line U1.
(§2) Without stimulation, no formation of HIV can be measured in these cells but, after 15 minutes stimulation with the phorbol ester PMA, it results in a massive production of HIV.
(§3) Some of the PKC inhibitors according to the present invention were investigated in this model. As a measure for the HIV production, either with the help of an ELISA test there was determined the viral protein p24 or with the help of an indicator cell, there was measured the HIV-induced formation of syncytia (giant cells produced by the fusion of individual cells).

For data set [3], the system named is HIV. Description: phorbol ester-induced HIV reactivation, viral protein p24 by ELISA. Particulars: Human immunodeficiency virus 1; U1 cells, PMA stimulation; average value ± SD; n = 3; read-out: inhibition of the HIV production IC50, p24 expression. The data set is classed as cell-based. On the procedure: as §1, §2, §3
Data set [4] has as its system promonocytic cell line U1. The data set is described as follows: control experiments for cytotoxic action in the HIV model. It is filed as cell-based.
In data set [5] the test system is HIV. The data set is described as follows: HIV production in PMA-stimulated promonocytic U1 cells (both methods). It is filed as cell-based. On the procedure:
as §1, §2, §3

Data set [6] relates to narcotised, spontaneously hypertensive rat (SHR). The data set is described as follows: anti-hypertensive action in narcotised spontaneously hypertensive rats, i.v. The data set is classed as in vivo. To be noted: for reduction of the average arterial blood pressure / reduction of the heart frequency: 60 minutes after administration, average ± SD; for anti-hypertensive action, in words / influencing of the heart frequency, in words: i.v. On the procedure:
As test model, there was used the narcotised, spontaneously hypertensive rat (SHR). After intravenous administration of the inhibitor of MLC kinase, in each case 60 minutes after the administration of the compound, there were found the reductions of the average arterial blood pressure set out in the following Table 2.

A value given as a limit tells only on which side of the number the result lay.

We go through six compounds from patent publication US5945440A, “Indolocarbazole imides and the use thereof” (priority 1992, dated 1999).

By IC50 is commonly meant the concentration needed to halve the response being measured.

T1 sequence (P11799 935-1906): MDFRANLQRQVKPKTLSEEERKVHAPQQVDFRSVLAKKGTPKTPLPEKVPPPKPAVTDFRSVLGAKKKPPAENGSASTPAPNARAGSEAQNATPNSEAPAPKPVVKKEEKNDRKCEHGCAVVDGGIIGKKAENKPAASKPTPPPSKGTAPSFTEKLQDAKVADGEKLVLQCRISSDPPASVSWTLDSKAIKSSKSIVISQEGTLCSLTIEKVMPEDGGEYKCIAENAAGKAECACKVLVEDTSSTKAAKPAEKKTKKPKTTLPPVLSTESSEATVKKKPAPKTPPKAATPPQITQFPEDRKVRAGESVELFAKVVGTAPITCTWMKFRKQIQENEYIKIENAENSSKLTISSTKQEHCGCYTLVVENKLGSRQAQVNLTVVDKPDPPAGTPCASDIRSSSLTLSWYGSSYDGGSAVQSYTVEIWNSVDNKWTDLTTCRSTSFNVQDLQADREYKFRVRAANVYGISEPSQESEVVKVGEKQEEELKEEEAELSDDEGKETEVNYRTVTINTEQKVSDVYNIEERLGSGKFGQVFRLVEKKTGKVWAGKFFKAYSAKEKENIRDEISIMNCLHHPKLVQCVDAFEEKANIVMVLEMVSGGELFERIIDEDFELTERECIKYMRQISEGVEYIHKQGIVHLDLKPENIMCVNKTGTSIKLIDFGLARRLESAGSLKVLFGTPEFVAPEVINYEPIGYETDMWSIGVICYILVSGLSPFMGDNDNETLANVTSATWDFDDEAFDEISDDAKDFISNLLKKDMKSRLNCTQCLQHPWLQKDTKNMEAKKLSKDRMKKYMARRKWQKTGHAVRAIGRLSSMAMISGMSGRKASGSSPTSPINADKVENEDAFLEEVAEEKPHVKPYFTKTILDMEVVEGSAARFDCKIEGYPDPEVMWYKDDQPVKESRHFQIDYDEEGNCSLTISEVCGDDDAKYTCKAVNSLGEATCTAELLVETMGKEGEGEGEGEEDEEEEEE

As for `CN(C)CC(O)Cn1c2ccccc2c2c3c(c4c5ccccc5n(C)c4c21)C(=O)NC3=O` (racemic) [Example 10, (±)-12-(3-Dimethylamino-2-hydroxy-1-propyl)-6,7,12,13-tetrahydro-13-methyl-5,7-dioxo-5H-indolo[2,3-a]pyrrolo-[3,4-c]carbazole], the “ratio of IC50 C-kinase/IC50 MLC-kinase” value in data set [1] was 0.2. In addition, the “inhibition of tumour cell growth, in words” value in the data set with human tumour cells is reported as “the growth of the tumour cells can be inhibited depending upon the concentration”. For the same compound, the IC50 on protein kinase C came to 21 nM.

On to `COc1ccc2c(c1)c1c3c(c4c5ccccc5n(C)c4c1n2CCC#N)C(=O)NC3=O` [Example 1, 13-(2-Cyanoethyl)-6,7,12,13-tetrahydro-3-methoxy-12-methyl-5,7-dioxo-5H-indolo[2,3-a]pyrrolo[3,4-c]-carbazole], for which the IC50 in data set [1] stood at 200 nM; in the data set on HIV [2], 28 nM; in the data set with HIV [3], 118 ± 98 nM; at protein kinase C, 1.5 nM. Further, the “ratio of IC50 C-kinase/IC50 MLC-kinase” value in data set [1] was 0.008. Also, in data set [4], the “cytotoxic action as cause of the anti-HIV action, in words” value is recorded as “the anti-HIV action did not come about due to a cytotoxic action”. For the same compound, the “protein kinase C inhibition, in words” value in the data set with protein kinase C (potency and selectivity vs MLC kinase) was “potent and selective protein kinase C inhibitor”. Moreover, the “anti-HIV action, in words” value in the data set on HIV [5] (both test methods) is given as “an anti-HIV action could be demonstrated”.

In the case of `Cn1c2ccccc2c2c3c(c4c5ccccc5[nH]c4c21)C(=O)NC3=O` [Example 7c, 6,7,12,13-tetrahydro-12-methyl-5,7-dioxo-5H-indolo[2,3-a]pyrrolo[3,4-c]carbazole], in data set [1], the 50% inhibitory concentration (IC50) worked out at 23 nM; the “MLC kinase inhibition, in words” value is “potent and selective inhibitors of MLC kinase”; the “ratio of IC50 C-kinase/IC50 MLC-kinase” value is more than 435. For the same compound, the IC50 on protein kinase C is more than 10000 nM. Further, in data set [6] (3 mg/kg i.v.), the “reduction of the average arterial blood pressure” value came to 10 ± 7% and the “reduction of the heart frequency” value was found to be 7 ± 3%. Moreover, in data set [6] (10 mg/kg i.v.), the “reduction of the average arterial blood pressure” value is 23 ± 2% and the “reduction of the heart frequency” value was found to be 8 ± 2%. In data set [6], the “anti-hypertensive action, in words” value is “dosage-dependent anti-hypertensive action could be demonstrated” and the “influencing of the heart frequency, in words” value is reported as “scarcely observable”.

`CC(C)N(CCCn1c2ccccc2c2c3c(c4c5ccccc5[nH]c4c21)C(=O)NC3=O)C(C)C` [Example 7g, 12-(3-diisopropylaminopropyl)-6,7,12,13-tetrahydro-5,7-dioxo-5H-indolo[2,3-a]pyrrolo[3,4-c]carbazole]: in data set [1], the IC50 was 110 nM and the “ratio of IC50 C-kinase/IC50 MLC-kinase” value is recorded as 0.4. Besides, the “inhibition of tumour cell growth, in words” value in the data set on human tumour cells is “the growth of the tumour cells can be inhibited depending upon the concentration”. In addition, the IC50 at protein kinase C stood at 42 nM.

Regarding `COc1ccc2[nH]c3c4[nH]c5ccc(OC)cc5c4c4c(c3c2c1)C(=O)NC4=O` [Example 11d, 6,7,12,13-tetrahydro-3,9-dimethoxy-5,7-dioxo-5H-indolo[2,3-a]pyrrolo[3,4-c]carbazole], in data set [1], the IC50 is 21 nM; the “MLC kinase inhibition, in words” value was “potent and selective inhibitors of MLC kinase”; the “ratio of IC50 C-kinase/IC50 MLC-kinase” value is more than 476. In addition, on protein kinase C, the IC50 was more than 10000 nM. Besides, in data set [6] (3 mg/kg i.v.), the “reduction of the average arterial blood pressure” value is reported as 16 ± 3% and the “reduction of the heart frequency” value is recorded as 6 ± 2%. Besides, in data set [6] (10 mg/kg i.v.), the “reduction of the average arterial blood pressure” value is listed as 35 ± 5% and the “reduction of the heart frequency” value is on record as 10 ± 3%. Besides, in data set [6], the “anti-hypertensive action, in words” value is on record as “dosage-dependent anti-hypertensive action could be demonstrated” and the “influencing of the heart frequency, in words” value is given as “scarcely observable”.

`CC1CNCCN1S(=O)(=O)c1cccc2cnccc12` (stereo not drawn) [Example H-7, reference compound]: the “suppression of HIV production, in words” value in the data set on HIV [5] (1 hour before PMA stimulation and 48 hours after) is recorded as “the production of HIV can be completely suppressed”.
